Values after ≈ are worked out from the molar mass of the structure shown. Active and inactive are the calls of the source. No cut-off for these calls is given here.
Tests used:
[1] = system: Mycobacterium tuberculosis; assay: Minimum bactericidal concentration against Mycobacterium tuberculosis H37Ra; format: functional
[2] = system: Mycobacterium tuberculosis; assay: Minimum inhibitory concentration against Mycobacterium tuberculosis H37Ra; […]; format: functional
[3] = system: Mycobacterium tuberculosis; assay: Minimum inhibitory concentration against Mycobacterium tuberculosis H37Ra; format: functional
[4] = system: Mycobacterium tuberculosis; assay: Percent inhibition of compound against Mycobacterium tuberculosis H37Ra at 12.5 ug/mL concentration in BACTEC assay; format: functional
Mycobacterium avium [5] = assay: Anti-MAC activity against Mycobacterium avium macrophage was determined; format: functional
Mycobacterium avium [6] = assay: Anti-MAC activity against Mycobacterium avium macrophage; I means inactive in macrophages; format: functional, organism-based
[7] = system: Mycobacterium tuberculosis; assay: Minimum inhibitory concentration against Mycobacterium tuberculosis H37Ra; value ranges from 32-128 ug/mL; format: functional
Mycobacterium avium [8] = assay: Anti-MAC activity against Mycobacterium avium macrophage; cytotoxic to macrophages; format: functional, organism-based
[9] = system: Mycobacterium tuberculosis; assay: Minimum inhibitory concentration against Mycobacterium tuberculosis H37Ra; value ranges from 16-32 ug/mL; format: functional
[10] = system: Mycobacterium tuberculosis; assay: Minimum bactericidal concentration against Mycobacterium tuberculosis H37Ra; value ranges from 64->128 ug/mL; format: functional
[11] = system: Mycobacterium tuberculosis; assay: Minimum inhibitory concentration against Mycobacterium tuberculosis H37Ra; value ranges from 16-64 ug/mL; format: functional
[12] = system: Mycobacterium tuberculosis; assay: Minimum inhibitory concentration against Mycobacterium tuberculosis H37Ra; partial inhibition at 128 ug/mL; format: functional
[13] = system: Mycobacterium tuberculosis; assay: Minimum inhibitory concentration against Mycobacterium tuberculosis H37Ra; value ranges from […] ug/mL; format: functional
[14] = system: Mycobacterium tuberculosis; assay: Minimum inhibitory concentration against Mycobacterium tuberculosis H37Ra; value ranges from >12.8-<=128 ug/mL; format: functional

SMILES: CCCCCCCCCCCC[S+]([O-])CC1NC(CO)C(O)C1O (stereo not given)
- MBC [1]: ≥ 128 µg/mL
- MIC [2]: 32 µg/mL (≈ 88 µM)

SMILES: COc1ccccc1SCC1NC(CO)C(O)C1O (stereo not given)
- MIC [3]: > 128 µg/mL

SMILES: OCC1NC(CSCc2ccccc2)C(O)C1O (stereo not given)
- MIC [3]: > 128 µg/mL

SMILES: OCC1NC(CSc2ccccc2)C(O)C1O (stereo not given)
- inhibition at 12.5 µg/mL [4]: 0%
- MIC [3]: > 128 µg/mL
- Activity (Mycobacterium avium [5]): 4 µg/mL

SMILES: O=S(=O)(CC1NC(CO)C(O)C1O)c1ccccc1 (stereo not given)
- inhibition at 12.5 µg/mL [4]: 6%
- MIC [3]: > 128 µg/mL
- Activity (Mycobacterium avium [6]): inactive

SMILES: COc1ccc(SCC2NC(CO)C(O)C2O)cc1 (stereo not given)
- MIC [3]: > 128 µg/mL

SMILES: CCCCCCCCCCCCS(=O)(=O)CC1NC(CO)C(O)C1O (stereo not given)
- MBC [1]: ≥ 128 µg/mL
- MIC [7]: 32 µg/mL (≈ 84.3 µM)
- Activity (Mycobacterium avium [8]): Cytotoxic

SMILES: CCCCCCCCCCCCSCC1NC(CO)C(O)C1O (stereo not given)
- MIC [9]: 16 µg/mL (≈ 46 µM)
- MBC [10]: 64 µg/mL (≈ 184 µM)
- Activity (Mycobacterium avium [8]): Cytotoxic

SMILES: CCCCCCCCCCSCC1NC(CO)C(O)C1O (stereo not given)
- MBC [1]: ≥ 128 µg/mL
- MIC [7]: 32 µg/mL (≈ 100 µM)

SMILES: CCCCCCCCCCCCCCCCSCC1NC(CO)C(O)C1O (stereo not given)
- MBC [10]: 64 µg/mL (≈ 159 µM)
- MIC [11]: 16 µg/mL (≈ 39.6 µM)

SMILES: OCC1NC(CSc2ccc3ccccc3c2)C(O)C1O (stereo not given)
- inhibition at 12.5 µg/mL [4]: 18%
- MIC [12]: > 128 µg/mL

SMILES: [O-][S+](CC1NC(CO)C(O)C1O)c1ccccc1 (stereo not given)
- inhibition at 12.5 µg/mL [4]: 18%
- MIC [3]: > 128 µg/mL
- Activity (Mycobacterium avium [6]): inactive

SMILES: N#Cc1ccc(SCC2NC(CO)C(O)C2O)cc1 (stereo not given)
- inhibition at 12.5 µg/mL [4]: 5%
- MIC [3]: > 128 µg/mL

SMILES: CC(C)=CCC/C(C)=C\CSCC1NC(CO)C(O)C1O (stereo not given)
- Activity (Mycobacterium avium [8]): Cytotoxic
- MIC [13]: 64 µg/mL (≈ 203 µM)

SMILES: OC[C@H]1O[C@@H](CSc2ccccc2)[C@H](O)[C@@H]1O
- MIC [3]: > 128 µg/mL
- Activity (Mycobacterium avium [5]): >64 µg/mL

SMILES: OCC1NC(CSc2ccncc2)C(O)C1O (stereo not given)
- inhibition at 12.5 µg/mL [4]: 6%
- MIC [3]: > 128 µg/mL

SMILES: CCCCCCCCCCCCS(=O)(=O)C[C@H]1NC(CO)C(O)C1O (stereo not given in full)
- MIC [14]: > 12.8 µg/mL

— ChEMBL document CHEMBL1130732, “Homologated aza analogs of arabinose as antimycobacterial agents” (1998)
